Data reported in patent publication US7763585B2, “Methods for inhibiting tumor cell proliferation” (priority 2003, dated 2010).
Where two headings read alike, the source gives them in different places.

Columns and labels:
Stat3 = test: EMSA of nuclear extracts from treated cells with constitutively-activated Stat3; format: cell-based, mouse and human; details: Src-transformed fibroblasts and human tumor cells, FIG. 3
Protocol: FIG. 3 is a photograph showing the evaluation of effects of platinum complexes on Stat3 activation analyzed by EMSA. Nuclear extracts prepared from malignant cells that contain constitutively-activated Stat3 and treated with platinum complexes for the indicated times were analyzed by EMSA using hSIE oligonucleotide probe. Extracts were prepared from v-Src-transformed NIH3T3/v-Src; human breast carcinoma MDA-MB-231; MDA-MB-435; and […]. Position of Stat3:DNA complex in gel is shown.
Nuclear extracts were prepared from cell lines and used for EMSA as previously described (Turkson et al., 1998; Yu et al., 1995; Garcia et al., 1997). In some cases, cells were pre-treated with platinum complexes for the indicated times prior to harvesting. Where cells were stimulated with EGF (6 ng/ml), duration of treatment was 15 min. Nuclear extracts were pre-incubated with compounds for 30 min at room temperature prior to incubation with radiolabeled probe. The ^32P-radiolabeled oligonucleotide probes used are hSIE (high affinity sis-inducible element, m67 variant, 5′-[…]-3′) (SEQ ID NO:1) that binds both Stat1 and Stat3 (Garcia et al., 1997; Wagner et al., 1990), MGFe (mammary gland factor element from the bovine β-casein gene promoter, 5′-[…]-3′) (SEQ ID NO:2) that binds Stat1 and Stat5 (Gouilleux et al., 1995; Seidel et al., 1995), the NF-κB binding oligo (5′-[…]-3′) (SEQ ID NO:3), and the oligonucleotide sequence from the DHFR promoter that binds E2F1.
The effects of platinum complexes on persistent activation of Stat3 in Src-transformed fibroblasts and human tumor cells were investigated. […] These studies were then extended to evaluate the effects of the platinum complexes on Stat3 transcriptional activity.

Stat1:Stat1 = molecular target: T1, Stat1:Stat1 (Mus musculus, UniProt P42225); test: EMSA, disruption of Stat1:Stat1 DNA-binding activity in vitro (hSIE probe); format: biochemical; details: for Level of DNA-binding activity of Stat1 (EMSA): EGF-stimulated fibroblast nuclear extracts, 30 min preincubation, FIG. 1A
T1 construct: endogenous in cells; host or cells: EGF-stimulated fibroblasts (nuclear extract)
T1 sequence (P42225 2-749 limits assumed): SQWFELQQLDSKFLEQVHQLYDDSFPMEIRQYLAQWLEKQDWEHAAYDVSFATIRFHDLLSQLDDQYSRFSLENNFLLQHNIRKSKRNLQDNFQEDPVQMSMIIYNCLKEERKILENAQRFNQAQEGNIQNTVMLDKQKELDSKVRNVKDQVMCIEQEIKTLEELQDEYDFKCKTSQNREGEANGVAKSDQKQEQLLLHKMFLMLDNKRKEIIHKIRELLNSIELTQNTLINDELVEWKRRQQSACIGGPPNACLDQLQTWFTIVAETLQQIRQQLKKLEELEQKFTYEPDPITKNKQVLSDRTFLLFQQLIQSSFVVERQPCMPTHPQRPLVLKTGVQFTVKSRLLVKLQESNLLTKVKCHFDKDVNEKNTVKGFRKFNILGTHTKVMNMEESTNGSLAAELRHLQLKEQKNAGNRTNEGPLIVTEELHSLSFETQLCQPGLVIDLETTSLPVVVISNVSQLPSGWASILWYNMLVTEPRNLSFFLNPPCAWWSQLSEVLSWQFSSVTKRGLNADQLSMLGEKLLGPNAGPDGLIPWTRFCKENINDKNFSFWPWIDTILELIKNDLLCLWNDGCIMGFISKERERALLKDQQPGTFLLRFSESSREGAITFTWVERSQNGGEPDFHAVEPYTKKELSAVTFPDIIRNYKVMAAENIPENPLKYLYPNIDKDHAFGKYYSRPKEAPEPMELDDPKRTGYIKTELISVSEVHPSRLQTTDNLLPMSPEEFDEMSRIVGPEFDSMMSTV
Protocol: FIGS. 1A-D are photographs showing EMSA analyses of DNA-binding activities and effects of platinum complexes. Nuclear extracts containing activated Stat1, Stat3 and Stat5 are treated with the indicated concentrations of platinum complex ISSCPA-1, ISSCPA-3, ISSCPA-7, or PtCl4 for 30 min at room temperature prior to incubation with radiolabeled oligonucleotide probes. […] Positions of complexes of DNA with STAT, E2F1 or NFκB (p65, p50) in gel are labeled. Control lanes represent nuclear extracts that are not pre-incubated with platinum complexes.
Nuclear extracts were prepared from cell lines and used for EMSA as previously described (Turkson et al., 1998; Yu et al., 1995; Garcia et al., 1997). In some cases, cells were pre-treated with platinum complexes for the indicated times prior to harvesting. Where cells were stimulated with EGF (6 ng/ml), duration of treatment was 15 min. Nuclear extracts were pre-incubated with compounds for 30 min at room temperature prior to incubation with radiolabeled probe. The ^32P-radiolabeled oligonucleotide probes used are hSIE (high affinity sis-inducible element, m67 variant, 5′-[…]-3′) (SEQ ID NO:1) that binds both Stat1 and Stat3 (Garcia et al., 1997; Wagner et al., 1990), MGFe (mammary gland factor element from the bovine β-casein gene promoter, 5′-AGATTTCTAGGAATTCAA-3′) (SEQ ID NO:2) that binds Stat1 and Stat5 (Gouilleux et al., 1995; Seidel et al., 1995), the NF-κB binding oligo (5′-[…]-3′) (SEQ ID NO:3), and the oligonucleotide sequence from the DHFR promoter that binds E2F1.
Platinum compounds were evaluated for inhibitory activity against STAT DNA-binding in vitro.

[1] = tested on: human breast and non-small cell lung cancer cell lines; test: Cell proliferation ([3H]-thymidine incorporation) of human breast and non-small cell lung cancer cell lines; format: cell-based; details: FIG. 6
From the text: FIGS. 6A and 6B show the effects of platinum complexes on cell proliferation and viability. […] Values are the mean and S.D. of 3-4 independent determinations.
The effects of platinum complexes on cell proliferation measured by [^3H]-thymidine incorporation were investigated.

[2] = tested on: Src-transformed NIH3T3 fibroblasts; test: TUNEL staining for apoptosis, Src-transformed NIH3T3 fibroblasts; format: cell-based, mouse; details: 48 h treatment, FIG. 7
Protocol: FIG. 7 is a photograph showing induction of apoptosis by platinum complexes. Normal NIH3T3 fibroblasts and their v-Src-transformed counterparts were treated with platinum complexes for 48 h and analyzed for evidence of DNA damage using TUNEL staining kit.
Proliferating cells were counted by phase-contrast microscopy for viable cells (using trypan blue exclusion. TUNEL staining was carried according to supplier's instructions to detect apoptotic cells. Cells (NIH3T3 or NIH3T3/v-Src) were first treated with or without compounds 24-48 h prior to staining.
Studies have established a critical role for constitutive Stat3 signaling in the survival of transformed and tumor cells (Catlett-Falcone et al., 1999a; Grandis et al., 2000a; Epling-Burnette et al., 2001; Bowman et al., 2000b; Grandis et al., 2000b; Horiguchi et al., 2002). Effects of the subject platinum compounds on viability and survival of malignant cells were evaluated. To determine whether inhibition of persistently-active Stat3 by the subject compounds results in apoptosis, Src-transformed and normal mouse fibroblasts were treated with the subject platinum compounds and subjected to TUNEL staining for evidence of apoptosis.

Structure (SMILES)	Inhibition of constitutive Stat3 activation in treated cells (EMSA of nuclear extracts) (Stat3)	IC50 (Stat1:Stat1)	Level of DNA-binding activity of Stat1 (EMSA) (Stat1:Stat1; hSIE probe)	Growth of human breast and non-small cell lung cancer cell lines ([3H]-thymidine incorporation) [1]	Apoptosis (TUNEL staining) in Src-transformed NIH3T3 fibroblasts [2]	IC50 (Stat1:Stat1; nuclear extracts pre-incubated 30 min at room temperature, hSIE probe, read-out: IC50 for disruption of STAT DNA-binding activity in vitro, Stat1:Stat1)
O=[N+]([O-])[Pt]1([Cl])([Cl])([Cl])[NH]CC[NH]1 [ISS CPA-1]	strong inhibition	20 µM	dose-dependent reduction	strongly inhibited	strong apoptosis	
[NH2][Pt]([NH2])([Cl])([Cl])([Cl])[N+](=O)[O-] [ISS CPA-7]	strong inhibition		dose-dependent reduction	strongly inhibited	strong apoptosis	4 µM
